Experimental data taken from patent EP2963029A1, “Cyclic derivatives of epoxyisoprostanoids as therapeutic agents” (ETH Zurich, priority 2014, dated 2016).
Like-named read-outs stand apart in the source and are kept apart here.

Columns and labels:
[1] = tested on: Pro-inflammatory chemokine genes: CCL1, 2, 3 and 4; test: qPCR expression of pro-inflammatory chemokine genes in pretreated, R837-stimulated bone marrow-derived dendritic cells; assay type: cell-based, mouse; conditions: pretreated 75 minutes, then R837 for 3 h; normalized to G6PDH (Figure 2)
Text: (§1) • Figure 1: Treatment with cyclo-EC (9) licenses dendritic cells to polarize niave CD4 T cells towards the Th2 subset. Naïve transgenic splenic CD4 T cells were co-cultured together with splenic dendritic cells that had been pre-treated either with cyclo-EC (9) (cEC) or the respective solvent control. CD4 T cells were then stimulated with the cognate antigen for 4 days. […] Shown is the percentage of IL-4 producing Th2 and IFNγ producing Th1 cells after treatment with cEC or solvent DMSO. Differences between cEC and DMSO treatments are significant as indicated by (*) using unpaired, two-tailed t tests. […] Wild type bone marrow-derived dendritic cells were pretreated with cyclo-EC (9) (cEC) or solvent control for 75 minutes before stimulation with the TLR7 (toll-like receptor 7) ligand R837 (Syed, T. A., Exp.Opin.Pharmacother. 2001, 2, 877) for an additional 3 h. Cells were then lysed, mRNA was purified, reverse transcribed and expression of Nrf2 ([…]) target genes as well as the indicated chemokine genes was determined by qPCR. Expression levels were normalized to G6PDH (glucose 6-phosphate dehydrogenase) expression. […] Cytokines in the supernatant were quantified with ELISA. • Figure 4. […] Cytokines in the supernatant were quantified with ELISA. • Figure 5. […]

[2] = tested on: IL-12; test: IL-12 secretion by bone marrow-derived dendritic cells stimulated with TLR7 agonist R837 (ELISA); assay type: cell-based, mouse; conditions: BMDCs treated 60 minutes, then R837 for 18 h (Figures 3-5)
Text: as §1, with “qPCR.” for “qPCR. Expression levels were normalized to G6PDH (glucose 6-phosphate dehydrogenase) expression.”
(§2) Bone marrow cells from tibia and femur were isolated ex vivo and differentiated in vitro into bone marrow derived dendritic cells (BMDC) by cultivation in the presence of 2 ng/ml carrier free recombinant mouse GM-CSF (BioLegend, 576308) in RPMI 1640 medium (GE Healthcare, E15-039) supplemented with L-glutamine (Lonza-Cambrex BioWhittaker, BE17-605E), HEPES Buffer (Lonza-Cambrex BioWhittaker, BE17-737E), peniciline/ streptomycine (Gibco Life Technologies 15140-122) and fetal bovine serum (Gibco Life Sciences 10270-106). […] Cells were then harvested, counted and seeded into 96-well flat bottom plates at 10^5 cells/well. […] Cytokine concentrations in supernatant were quantified by sandwich ELISA using the following antibody pairs: IL-6 (504502 and 504602) from BioLegend and IL-12 (14-7125-85 and 13-7123-85) from eBioscience. […] Optical density was measured using a Spectra MAX 190 device by Bucher biotec. […]

[3] = tested on: IL-6; test: IL-6 secretion by bone marrow-derived dendritic cells stimulated with TLR7 agonist R837 (ELISA); assay type: cell-based, mouse; conditions: BMDCs treated 60 minutes, then R837 for 18 h (Figures 3-5)
Text: as §1, with “qPCR.” for “qPCR. Expression levels were normalized to G6PDH (glucose 6-phosphate dehydrogenase) expression.”
as §2

[4] = tested on: naïve CD4 T cells; test: Co-culture of compound-pretreated splenic dendritic cells with naive CD4 T cells; Th1/Th2 polarization by intracellular FACS staining; assay type: cell-based, C57BL/6 mice
[5] = tested on: Nrf2 target genes; test: qPCR expression of Nrf2 target genes in pretreated, R837-stimulated bone marrow-derived dendritic cells; assay type: cell-based, mouse
Text: as §1

[6] = tested on: IL-6; conditions: bone-marrow derived dendritic cells, Egger et al., Angew. Chem. Int. Ed. 2013, cited from earlier work
[7] = tested on: IL-12; conditions: bone-marrow derived dendritic cells, Egger et al., Angew. Chem. Int. Ed. 2013, cited from earlier work

SMILES	pro-inflammatory chemokine expression (CCL1, 2, 3 and 4) [1]	inhibition of IL-12 secretion [2]	inhibition of IL-12 secretion ([2]; listed as cEC)	inhibition of IL-6 secretion [3]	inhibition of IL-6 secretion ([3]; listed as cEC)	percentage of IFNγ producing Th1 cells ([4]; dendritic cells treated with 500nM for 60 minutes, co-culture 4 days with 10 nM gp61, vs solvent DMSO, p = 0.0161 (Figure 1))	percentage of IL-4 producing Th2 cells ([4]; dendritic cells treated with 500nM for 60 minutes, co-culture 4 days with 10 nM gp61, vs solvent DMSO, p = 0.039 (Figure 1))	expression of Nrf2 target genes (HO-1, NQO1) ([5]; pretreated 75 minutes, then R837 for 3 h, normalized to G6PDH (Figure 2))	secretion of pro-inflammatory cytokine IL-6 [6]	secretion of pro-inflammatory cytokine IL-12 [7]	secretion of pro-inflammatory cytokine IL-6 ([6]; listed as 8)	polarization of naïve CD4 T cells towards the Th2 subset ([4]; earlier experiments, splenic dendritic cells)	secretion of pro-inflammatory cytokine IL-12 ([7]; listed as 8)	expression of downstream targets of Nrf2 ([5]; earlier experiments, quantitative PCR)
CCCCC/C=C\C[C@H]1C=CC(=O)/C1=C/[C@@H](O)[C@@H]1CCCC(=O)O1 [cyclo-EC (9), (S)-6-((R,E)-1-Hydroxy-2-((S)-2-((Z)-oct-2-en-1-yl)-5-oxocyclopent-3-en-1-liydene)-ethyl)tetrahydro-2H-pyran-2-one]	inhibits pro-inflammatory chemokine expression	most potent inhibitor of IL-6 and IL-12 secretion	attenuates secretion of pro-inflammatory cytokines at lower concentrations than EC	most potent inhibitor of IL-6 and IL-12 secretion	attenuates secretion of pro-inflammatory cytokines at lower concentrations than EC	interferes with high dose antigen induced polarization towards the Th1 subset	licenses the dendritic cells to promote polarization of the Th2 subset	induces expression of Nrf2 target genes						
CCCCC/C=C\C[C@@H]1/C(=C\[C@H]2O[C@@H]2CCCC(=O)O)C(=O)C[C@H]1O [EI (19), 5,6-epoxyisoprostane E2]									reduced secretion	reduced secretion				
CCCCC/C=C\C[C@H]1C=CC(=O)/C1=C/[C@H]1O[C@@H]1CCCC(=O)O [EC (8), 4-((2R,3R)-3-((E)-((S)-2-((Z)-Oct-2-en-1-yl)-5-oxocyclopent-3-en-1-ylidene)-methyl)oxiran-2-yl)butanoic acid]		potent inhibitor of toll-like receptor 7 (TLR) mediated secretion of pro-inflammatory cytokines		potent inhibitor of toll-like receptor 7 (TLR) mediated secretion of pro-inflammatory cytokines					more potent than EI (19)	more potent than EI (19)	reduced secretion	able to license splenic dendritic cells to polarize naïve CD4 T cells towards the Th2 subset	reduced secretion	able to drive expression of downstream targets of Nrf2
